Source: patent EP1974751A1, “Formulations for non-steroidal anti-inflammatory drugs” (The Jordanian Pharmaceutical Manufacturing Co., priority 2007, dated 2008)

- optimal solubility of β-cyclodextrin (distilled water): 20 mM
- β-cyclodextrin solubility (water): 230 mM
Compound: OC[C@H]1O[C@@H]2O[C@H]3[C@H](O)[C@@H](O)[C@@H](O[C@H]4[C@H](O)[C@@H](O)[C@@H](O[C@H]5[C@H](O)[C@@H](O)[C@@H](O[C@H]6[C@H](O)[C@@H](O)[C@@H](O[C@H]7[C@H](O)[C@@H](O)[C@@H](O[C@H]8[C@H](O)[C@@H](O)[C@@H](O[C@H]1[C@H](O)[C@H]2O)O[C@@H]8CO)O[C@@H]7CO)O[C@@H]6CO)O[C@@H]5CO)O[C@@H]4CO)O[C@@H]3CO [β-cyclodextrin]
